According to patent US20080306126A1, “Peroxisome proliferator activated receptor treatment of hyperhomocysteinemia and its complications” (priority 2004, published 2008):

Assays:
Type in all cases: in vivo, Sprague Dawley rats
[1] = system: balloon catheter-injured carotid arteries; test: Balloon catheter injury of the carotid artery: development of intimal hyperplasia (I/M ratio); details: for I/M ratio of representative micrograph (single animal): 21 days after injury; for I/M (intimal/medial ratio), group mean: three weeks after catheter injury
Method: (§1) Ten-week-old female Sprague Dawley rats were obtained from Harlan Laboratories (Indianapolis, Ind.). After an acclimatization period of one week, they were fed a powdered control diet with or without methionine for one week. After one week on the normal or methionine diet, an aqueous preparation rosiglitazone (3.0 mg/kg/d) or vehicle was administered by gavage. The methionine diet was prepared with 10 g of L-methionine obtained from Sigma Chemical Company in St. Louis, Miss., added to 10 kg of powdered feed and thoroughly mixed. The rats were divided into four groups (n=7/group) and fed a) control diet; b) control diet with administration of rosiglitazone; c) methionine diet; and d) methionine diet with rosiglitazone.
Balloon catheter injury of to the carotid artery was induced as previously published (27). Briefly, a 2.0 mm PTCA obtained from Boston Scientific, Inc. in Quincy, Mass. was introduced through the femoral artery to the left carotid. The balloon was inflated to 4 atmospheres for 20 seconds and then deflated to 2 atmospheres and dragged down to the aorta. The animals were continued on their respective diets and rosiglitazone treatment was continued as indicated for three weeks after the surgery. The surgical procedures were conducted under anesthesia in a totally aseptic atmosphere. All rats had free access to the feed and water, and were maintained in a 12 hour day/light cycle.
The carotid arteries were separated and flushed with zinc buffered formalin. Each artery was cut from top into 4 equal segments and placed sequentially for embedding in paraffin. Sections no thicker then 6 um were cut and stained with hemotoxalin and eosin for microscopy. All four segments were read and the intimal/medial (I/M) ratio was calculated using Image-Pro software (NIH). The mean of the I/M ratios of the 4 sections reflected the I/M for one animal.

[2] = Serum homocysteine levels by high pressure liquid chromatography
Method: as §1
(§2) Before the beginning of the experiment, and at the time of sacrificing the animal a blood sample was obtained from each rat. At the end of the experiment, rats were sacrificed using a carbon dioxide chamber for harvesting tissues. Samples of blood and liver were collected and immediately processed. The serum and liver samples were stored frozen.
(§3) The Hcy levels were measured by high pressure liquid chromatography according to an established method (28,29). Cystathionine-β-synthase (CβS) was assayed in the liver samples, and the procedure followed was as previously published (26).

[3] = system: cystathionine-β-synthase (CβS); test: Cystathionine-β-synthase activity assayed in liver samples of treated rats; details: methionine diet with rosiglitazone, methionine diet alone 0.35+/−0.05
Method: as §1, §2, §3

Structure (SMILES): CN(CCOc1ccc(CC2SC(=O)NC2=O)cc1)c1ccccn1 (stereo not drawn) [rosiglitazone]
- I/M ratio of representative micrograph (single animal) ([1]; FIG. 1 micrograph C: control diet with rosiglitazone): 0.19
- I/M ratio of representative micrograph (single animal) ([1]; FIG. 1 micrograph D: methionine diet with rosiglitazone): 0.17
- I/M (intimal/medial ratio), group mean ([1]; control diet with rosiglitazone 3.0 mg/kg/d by gavage, control diet alone 0.18+/−0.05): 0.21+/−0.03
- I/M (intimal/medial ratio), group mean ([1]; methionine diet with rosiglitazone 3.0 mg/kg/d by gavage, methionine diet alone 0.82+/−0.21): 0.28+/−0.12
- I/M (intimal/medial ratio), group mean ([1]; methionine diet with rosiglitazone 3.0 mg/kg/d by gavage, methionine diet alone 0.82+/−0.21, listed as Rosiglitazone): 0.27+/−0.12
- serum homocysteine level ([2]; control diet with rosiglitazone, control diet alone 6.3+/−0.04 μM): 5.1 ± 0.6 µM
- homocysteine level ([2]; methionine diet with rosiglitazone treatment (background summary)): 16.4 ± 1.7 µM
- serum homocysteine concentration ([2]; methionine diet with rosiglitazone, methionine diet alone 28.9+/−3.2 μM): 16.4 ± 1.7 µM
- CβS activity [3]: 0.57+/−0.1 μmoles/mg protein
